Source: ChEMBL document CHEMBL3301562, “MMV Box screening against Plasmodium falciparum protein kinases and aminoacyl tRNA synthetases”

Experiments:
Type in all cases: functional
[1] = biological target: T1, Cdk-related protein kinase 6 (Plasmodium falciparum, UniProt O77239); test: Final concentrations were 1.5 uM ATP, 5 mM MnCl2, and 15 ug/ml PK6 in a buffer of 100 mM Tris-HCl (pH 7.5). 50 ug/mL MBP was provided as the substrate; 10 uM staurosporine was used as a control inhibitor. Incubation time was 3 hours and 40 minutes.The catalytic activity of each kinase was considered proportional to ATP consumed, as determined from measurements of residual [ATP] with the luciferase-based reagent Kinase-Glo (Promega) following incubation. Luminescence (proportional to residual [ATP]) was measured on the plate readers FLx800 (BioTek Instruments, Winooski, VT, USA) and MicroBeta2.
T1 sequence (O77239 whole entry): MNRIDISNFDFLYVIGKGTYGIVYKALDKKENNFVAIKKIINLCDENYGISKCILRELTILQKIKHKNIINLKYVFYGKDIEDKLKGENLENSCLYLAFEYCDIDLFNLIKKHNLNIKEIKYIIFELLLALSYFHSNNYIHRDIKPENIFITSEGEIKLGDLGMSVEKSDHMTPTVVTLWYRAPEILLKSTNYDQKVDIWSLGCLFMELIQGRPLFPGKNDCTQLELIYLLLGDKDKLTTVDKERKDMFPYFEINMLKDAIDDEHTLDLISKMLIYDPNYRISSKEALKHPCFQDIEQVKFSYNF

[2] = biological target: T2, Putative uncharacterized protein pk7 (Plasmodium falciparum, UniProt O96214); test: Final concentrations were 1 uM ATP, 2 mM DTT, 20 mM MgCl2, 2 mM MnCl2, 0.01% BSA, and 6 ug/ml PK7, in a buffer of 20 mM Tris-HCl (pH 7.5). The enzyme itself was the only substrate present (since autophosphorylation occurs); 100 uM 1NA-PP1 was used as a control inhibitor. Incubation time was 3 hours.
T2 sequence (O96214 whole entry): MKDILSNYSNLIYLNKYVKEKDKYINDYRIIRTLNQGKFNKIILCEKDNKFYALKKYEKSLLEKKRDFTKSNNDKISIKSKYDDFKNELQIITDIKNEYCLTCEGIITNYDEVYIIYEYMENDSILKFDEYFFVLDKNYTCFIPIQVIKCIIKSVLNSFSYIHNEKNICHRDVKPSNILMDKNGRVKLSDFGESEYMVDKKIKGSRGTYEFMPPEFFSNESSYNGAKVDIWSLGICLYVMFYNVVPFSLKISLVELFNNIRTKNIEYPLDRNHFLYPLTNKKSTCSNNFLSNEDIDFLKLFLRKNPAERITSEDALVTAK

[3] = biological target: T3, Mitogen-activated protein kinase (Plasmodium falciparum, UniProt Q25917); test: Final concentrations were 1 uM ATP, 0.5 mM DTT, 1 mM MgCl2, 0.5 mg/mL BSA, and 10 ug/ml MAP2 in a buffer of 50 mM HEPES (pH 7.0). 0.5 mg/mL histone III-S served as the substrate (13); 100 uM AMP-PNP, an ATP analog, was used as a control inhibitor. Incubation time was 4 hours.
T3 sequence (Q25917 whole entry): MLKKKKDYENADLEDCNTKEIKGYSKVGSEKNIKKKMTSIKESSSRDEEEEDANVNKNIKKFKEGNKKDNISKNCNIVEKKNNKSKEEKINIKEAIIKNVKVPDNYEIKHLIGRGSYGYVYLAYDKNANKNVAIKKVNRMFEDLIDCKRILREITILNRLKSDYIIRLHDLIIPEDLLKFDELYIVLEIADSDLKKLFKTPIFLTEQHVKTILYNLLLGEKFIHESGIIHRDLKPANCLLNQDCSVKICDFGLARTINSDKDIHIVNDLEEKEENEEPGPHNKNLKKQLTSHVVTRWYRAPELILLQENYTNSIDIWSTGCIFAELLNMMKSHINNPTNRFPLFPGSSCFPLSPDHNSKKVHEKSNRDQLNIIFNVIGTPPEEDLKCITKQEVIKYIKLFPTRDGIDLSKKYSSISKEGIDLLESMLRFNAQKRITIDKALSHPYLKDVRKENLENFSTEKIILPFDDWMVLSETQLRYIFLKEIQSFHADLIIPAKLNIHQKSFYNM

[4] = biological target: Calcium-dependent protein kinase 1 (Plasmodium falciparum, UniProt P62344); test: MMV: CDPK1 Protein kinase inhibition assay using recombinant PfCDPK1, syntide 2 peptide substrate, ATP and KinaseGlo to measure % inhibition at 1 uM MMV box compound.
Calcium-dependent protein kinase 1, sequence (P62344 whole entry): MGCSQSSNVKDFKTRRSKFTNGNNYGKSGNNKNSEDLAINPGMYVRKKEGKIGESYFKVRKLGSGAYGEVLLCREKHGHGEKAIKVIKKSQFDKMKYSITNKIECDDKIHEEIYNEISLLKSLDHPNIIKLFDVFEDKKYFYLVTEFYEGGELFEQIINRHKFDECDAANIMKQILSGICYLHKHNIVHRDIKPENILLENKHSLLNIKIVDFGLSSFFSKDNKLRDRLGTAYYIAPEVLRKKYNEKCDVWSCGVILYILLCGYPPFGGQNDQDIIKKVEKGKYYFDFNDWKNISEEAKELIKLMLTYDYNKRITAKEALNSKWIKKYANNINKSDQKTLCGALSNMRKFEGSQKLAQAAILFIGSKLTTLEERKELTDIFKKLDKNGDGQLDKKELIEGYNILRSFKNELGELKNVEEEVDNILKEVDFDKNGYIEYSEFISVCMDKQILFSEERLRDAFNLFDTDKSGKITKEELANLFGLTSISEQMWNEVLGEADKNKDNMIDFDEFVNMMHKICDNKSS

[5] = biological target: T4, Calcium-dependent protein kinase 4 (Plasmodium falciparum (isolate 3D7), UniProt Q8IBS5); test: MMV: CDPK4 Protein kinase inhibition assay using recombinant PfCDPK4, syntide2 peptide substrate, ATP and KinaseGlo to measure % inhibition at 1 uM MMV box compound.
T4 sequence (Q8IBS5 whole entry): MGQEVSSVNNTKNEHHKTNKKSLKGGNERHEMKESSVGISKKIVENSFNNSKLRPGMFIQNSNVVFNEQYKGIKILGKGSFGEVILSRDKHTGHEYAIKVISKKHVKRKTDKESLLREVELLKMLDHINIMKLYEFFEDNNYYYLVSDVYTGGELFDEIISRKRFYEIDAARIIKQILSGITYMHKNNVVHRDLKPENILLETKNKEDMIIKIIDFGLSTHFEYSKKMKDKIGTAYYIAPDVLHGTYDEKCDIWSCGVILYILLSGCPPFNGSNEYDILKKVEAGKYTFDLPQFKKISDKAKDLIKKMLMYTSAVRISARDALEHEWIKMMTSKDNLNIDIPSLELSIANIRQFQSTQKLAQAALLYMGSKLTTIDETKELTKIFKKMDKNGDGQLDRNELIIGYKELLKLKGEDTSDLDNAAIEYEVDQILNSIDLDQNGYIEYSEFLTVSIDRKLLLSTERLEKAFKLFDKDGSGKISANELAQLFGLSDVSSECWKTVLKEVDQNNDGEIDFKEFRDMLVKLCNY

Proline--tRNA ligase = biological target: T5, Proline--tRNA ligase (Plasmodium falciparum (isolate 3D7), UniProt Q8I5R7); test: MMV: ProRS recombinant Plasmodium falciparum Prolyl-tRNA-synthetase, assay with yeast tRNA, ATP, and proline and 3 uM MMV malaria box compound, assay read out with kinase glo as % inhibition.
T5 sequence (Q8I5R7 whole entry): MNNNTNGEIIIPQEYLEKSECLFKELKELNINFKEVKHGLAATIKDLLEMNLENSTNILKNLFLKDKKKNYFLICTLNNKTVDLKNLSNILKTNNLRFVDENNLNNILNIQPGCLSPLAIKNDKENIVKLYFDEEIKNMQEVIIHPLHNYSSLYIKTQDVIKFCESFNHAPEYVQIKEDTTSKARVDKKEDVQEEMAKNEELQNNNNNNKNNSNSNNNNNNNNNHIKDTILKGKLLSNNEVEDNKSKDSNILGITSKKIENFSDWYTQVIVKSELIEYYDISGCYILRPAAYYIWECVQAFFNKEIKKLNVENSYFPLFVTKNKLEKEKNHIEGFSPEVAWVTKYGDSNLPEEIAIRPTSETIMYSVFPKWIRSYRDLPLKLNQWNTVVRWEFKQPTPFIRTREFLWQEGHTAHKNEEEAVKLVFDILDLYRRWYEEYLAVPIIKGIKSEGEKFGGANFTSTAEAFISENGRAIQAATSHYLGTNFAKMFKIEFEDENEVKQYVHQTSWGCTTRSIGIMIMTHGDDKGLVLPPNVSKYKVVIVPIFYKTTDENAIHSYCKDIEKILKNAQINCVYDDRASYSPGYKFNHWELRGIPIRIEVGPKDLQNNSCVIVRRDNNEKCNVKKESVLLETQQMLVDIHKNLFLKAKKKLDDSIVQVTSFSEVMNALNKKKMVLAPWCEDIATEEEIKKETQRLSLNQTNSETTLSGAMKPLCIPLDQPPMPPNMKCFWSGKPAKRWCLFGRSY

Lysine--tRNA ligase = Lysine--tRNA ligase (Plasmodium falciparum (isolate 3D7), UniProt Q8IDJ8); test: MMV: KRS recombinant Plasmodium falciparum Lysyl-tRNA-synthetase, assay with yeast tRNA, ATP, and lysine and 3 uM MMV malaria box compound, assay read out with kinase glo as % inhibition.
Lysine--tRNA ligase, sequence (Q8IDJ8 whole entry): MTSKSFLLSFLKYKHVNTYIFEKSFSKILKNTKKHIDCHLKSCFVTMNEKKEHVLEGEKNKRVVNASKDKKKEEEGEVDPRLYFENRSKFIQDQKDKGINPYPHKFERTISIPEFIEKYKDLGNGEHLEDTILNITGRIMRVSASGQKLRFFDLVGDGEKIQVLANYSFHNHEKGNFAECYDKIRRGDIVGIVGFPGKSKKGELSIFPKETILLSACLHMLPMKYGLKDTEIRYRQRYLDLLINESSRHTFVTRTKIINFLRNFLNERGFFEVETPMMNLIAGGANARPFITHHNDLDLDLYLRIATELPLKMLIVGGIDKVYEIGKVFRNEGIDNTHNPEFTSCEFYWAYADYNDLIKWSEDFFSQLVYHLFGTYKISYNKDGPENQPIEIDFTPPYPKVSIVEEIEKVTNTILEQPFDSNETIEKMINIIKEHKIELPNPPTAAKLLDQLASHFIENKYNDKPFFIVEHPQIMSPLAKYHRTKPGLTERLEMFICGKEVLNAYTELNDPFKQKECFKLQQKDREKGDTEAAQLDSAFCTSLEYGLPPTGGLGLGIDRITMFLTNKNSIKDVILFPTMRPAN

Compound | IC50 [1] [nM] | IC50 [2] [nM] | IC50 [3] [nM] | IC50 [4] [nM] | IC50 [5] [nM] | IC50 (Proline--tRNA ligase) [nM] | IC50 (Lysine--tRNA ligase) [nM]
CCOc1cc(CNC(C)C(O)c2ccccc2)cc(Cl)c1OCC (centres undefined) | > 1000 | > 1000 | > 1000 | > 1000 | > 1000 | > 2500 | > 2500
Cc1cc(NC(=O)c2cccc(C(F)(F)F)c2)n(-c2nc(-c3ccc4c(c3)OCO4)cs2)n1 | > 1000 | > 1000 | > 1000 | > 1000 | > 1000 | > 2500 | > 2500
COc1cccc(C2(C)Nc3ccccc3-c3nc4ccccc4n32)c1 (centres undefined) | > 1000 | > 1000 | > 1000 | > 1000 | > 1000 | > 2500 | > 2500
CC(C)CNC(=O)c1c(N)n(CCc2ccccc2F)c2nc3ccccc3nc12 | > 1000 | > 1000 | > 1000 | > 1000 | > 1000 | > 2500 | > 2500
COCCNCC(O)Cn1c2ccc(Cl)cc2c2cc(Cl)ccc21 (centres undefined) | > 1000 | > 1000 | > 1000 | > 1000 | > 1000 | > 2500 | > 2500
O=C(NC1CCN(Cc2ccccc2)CC1)c1cc(-c2ccncc2)nc2ccc(Cl)cc12 | > 1000 | > 1000 | > 1000 | > 1000 | > 1000 | > 2500 | > 2500
COc1cc2cc(C(=O)Nc3ccccc3)c(N)nc2cc1OC | > 1000 | > 1000 | > 1000 | > 1000 | > 1000 | > 2500 | > 2500
Oc1ccccc1CN1CCN(C(c2ccccc2)c2ccccc2)CC1 | > 1000 | > 1000 | > 1000 | > 1000 | > 1000 | > 2500 | > 2500
CC(=O)Nc1nnc(SCc2c(C)cc(C(C)(C)C)cc2C)s1 | > 1000 | > 1000 | > 1000 | > 1000 | > 1000 | > 2500 | > 2500
CCOc1ccc(C2N(C)c3ccccc3N2C)cc1 | > 1000 | > 1000 | > 1000 | > 1000 | > 1000 | > 2500 | > 2500
CCN(Cc1ccccc1)C1CCN(Cc2cc(Br)ccc2O)CC1 | > 1000 | > 1000 | > 1000 | > 1000 | > 1000 | > 2500 | > 2500
COc1nc(Nc2ccc(C(C)C)cc2)nc(OC)n1 | > 1000 | > 1000 | > 1000 | > 1000 | > 1000 | > 2500 | > 2500
CCOc1cccc(C(=O)Nc2ccc(-c3nc4ccccc4[nH]3)cc2)c1 | > 1000 | > 1000 | > 1000 | > 1000 | > 1000 | > 2500 | > 2500
Clc1cc(Br)ccc1-c1ccc(CNCC2CCNCC2)o1 | > 1000 | > 1000 | > 1000 | > 1000 | > 1000 | > 2500 | > 2500
CC1CC(C)CN(C(=O)c2ccc(Cl)cc2Cl)C1 (centres undefined) | > 1000 | > 1000 | > 1000 | > 1000 | > 1000 | > 2500 | > 2500
OC(CNC1CCCC1)Cn1c2ccccc2c2ccccc21 (centres undefined) | > 1000 | > 1000 | > 1000 | > 1000 | > 1000 | > 2500 | > 2500
Clc1ccc2[nH]c3c(NCCCN4CCOCC4)ncnc3c2c1 | > 1000 | > 1000 | > 1000 | > 1000 | > 1000 | > 2500 | > 2500
Oc1c2c(nc3cc(-c4ccccc4)nn13)CCCC2 | > 1000 | > 1000 | > 1000 | > 1000 | > 1000 | > 2500 | > 2500
Cc1cc(N2CCN(C3CCCC3)CC2)n2c(nc3ccccc32)c1C#N | > 1000 | > 1000 | > 1000 | > 1000 | > 1000 | > 2500 | > 2500
CCCCOc1ccc(C(=O)Nc2cc(C)on2)cc1 | > 1000 | > 1000 | > 1000 | > 1000 | > 1000 | > 2500 | > 2500
CCc1ccc(Nc2cc(C)nc3nc(C)nn23)cc1 | > 1000 | > 1000 | > 1000 | > 1000 | > 1000 | > 2500 | > 2500
CCN(CC)S(=O)(=O)c1ccc(-c2csc(Nc3ccc(C)c(C)c3)n2)cc1 | > 1000 | > 1000 | > 1000 | > 1000 | > 1000 | > 2500 | > 2500
